Data as given in US20100267561A1, “HERBICIDAL PYRIDAZINONE DERIVATIVES” (priority 2007, published 2010).
Where two headings read alike, the source gives them in different places.

Columns and labels:
Assay type in all cases: in vivo
[1] = test system: ducksalad (Heteranthera limosa); assay: Test B flooded paddy test plant response
In short: (§1)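 Paddy-water application to 2-leaf plants in pots held under 3 cm of flooding; response is a 0–100 visual control rating against controls after 13 to 15 days, and a dash marks a missing result.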

[2] = test system: barnyardgrass (Echinochloa crus-galli); assay: Test B flooded paddy test plant response
In short: as §1

[3] = test system: rice (Oryza sativa); assay: Test B flooded paddy test plant response
In short: as §1

[4] = test system: umbrella sedge (Cyperus difformis); assay: Test B flooded paddy test plant response
In short: as §1

[5] = test system: morningglory (Ipomoea coccinea); assay: Test A pre-/postemergence plant response
In short: (§2)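 Ratings are visual, 0–100, where 100 means complete control and 0 no effect, taken roughly 10 days after treatment by comparison with untreated controls. Formulation: non-phytotoxic solvent mixture with surfactant.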

[6] = test system: wheat (Triticum aestivum); assay: Test A pre-/postemergence plant response; conditions: for plant injury at 125 g/ha / plant injury at 500 g/ha: Triticum aestivum, 240 h, read-out: Plant response rating, Wheat; for plant injury at 125 g/ha: 125 g ai/ha; for plant injury at 500 g/ha: 500 g ai/ha; for Plant response rating, Wheat: 1000 g ai/ha
In short: as §2

[7] = test system: corn (Zea mays); assay: Test A pre-/postemergence plant response; conditions: for Corn plant response rating (crop injury, 0 = no effect, 100 = complete kill) at 125 g/ha / Corn plant response rating (crop injury, 0 = no effect, 100 = complete kill) at 500 g/ha: Zea mays, 240 h; for Corn plant response rating (crop injury, 0 = no effect, 100 = complete kill) at 125 g/ha: 125 g ai/ha; for Corn plant response rating (crop injury, 0 = no effect, 100 = complete kill) at 500 g/ha: 500 g ai/ha; for Plant response rating, Corn: 1000 g ai/ha
In short: as §2

[8] = test system: barnyardgrass (Echinochloa crus-galli); assay: Test A pre-/postemergence plant response; conditions: for pest or weed control at 125 g/ha / pest or weed control at 500 g/ha: Echinochloa crus-galli, 240 h, read-out: Plant response rating, Barnyardgrass; for pest or weed control at 125 g/ha: 125 g ai/ha; for pest or weed control at 500 g/ha: 500 g ai/ha; for Plant response rating, Barnyardgrass: 1000 g ai/ha
In short: as §2

[9] = test system: large crabgrass (Digitaria sanguinalis); assay: Test A pre-/postemergence plant response; conditions: for pest or weed control at 125 g/ha / pest or weed control at 500 g/ha: Digitaria sanguinalis, 240 h, read-out: Plant response rating, Crabgrass, Large; for pest or weed control at 125 g/ha: 125 g ai/ha; for pest or weed control at 500 g/ha: 500 g ai/ha; for Plant response rating, Crabgrass, Large: 1000 g ai/ha
In short: as §2

[10] = test system: pigweed (Amaranthus retroflexus); assay: Test A pre-/postemergence plant response; conditions: for pest or weed control at 125 g/ha / pest or weed control at 500 g/ha: Amaranthus retroflexus, 240 h, read-out: Plant response rating, Pigweed; for pest or weed control at 125 g/ha: 125 g ai/ha; for pest or weed control at 500 g/ha: 500 g ai/ha; for Plant response rating, Pigweed: 1000 g ai/ha
In short: as §2

[11] = test system: velvetleaf (Abutilon theophrasti); assay: Test A pre-/postemergence plant response
In short: as §2

[12] = Postemergence, 125 g ai/ha, 0 to 100 scale, 0 no effect, 100 complete control
[13] = Postemergence, 500 g ai/ha, 0 to 100 scale, 0 no effect, 100 complete control
[14] = Preemergence, 125 g ai/ha, 0 to 100 scale (0 no effect, 100 complete control)
[15] = Preemergence, 500 g ai/ha, 0 to 100 scale (0 no effect, 100 complete control)
[16] = post-emergence, Postemergence, 0 to 100 scale, 0 no effect, 100 complete control
[17] = pre-emergence, Preemergence, 0 to 100 scale (0 no effect, 100 complete control)
[18] = Flood (flooded paddy test), 62 g ai/ha, scale 0 to 100, 0 no effect, 100 complete control
[19] = Flood (flooded paddy test), 125 g ai/ha, scale 0 to 100, 0 no effect, 100 complete control
[20] = Flood (flooded paddy test), 250 g ai/ha, scale 0 to 100, 0 no effect, 100 complete control
[21] = Flood, 31 g ai/ha, scale 0 to 100
[22] = Postemergence, 1000 g ai/ha, 0 to 100 scale, 0 no effect, 100 complete control
[23] = Preemergence, 1000 g ai/ha, 0 to 100 scale (0 no effect, 100 complete control)
[24] = Postemergence, 0 to 100 scale, 0 no effect, 100 complete control
[25] = Preemergence, 0 to 100 scale (0 no effect, 100 complete control)

Structure (SMILES): Cc1cn(-c2ccc(Cl)cc2)nc1-c1c(O)cnn(C)c1=O [Compound 30, 4-[1-(4-chlorophenyl)-4-methyl-1H-pyrazol-3-yl]-5-hydroxy-2-methyl-3(2H)-pyridazinone]
- pest or weed control at 62 g/ha ([1]; Heteranthera limosa, Flood (flooded paddy test), 62 g ai/ha, scale 0 to 100, 0 no effect, 100 complete control, read-out: Plant response rating, Ducksalad): 0%
- pest or weed control at 125 g/ha ([1]; Heteranthera limosa, Flood (flooded paddy test), 125 g ai/ha, scale 0 to 100, 0 no effect, 100 complete control, read-out: Plant response rating, Ducksalad): 0%
- pest or weed control at 250 g/ha ([1]; Heteranthera limosa, Flood (flooded paddy test), 250 g ai/ha, scale 0 to 100, 0 no effect, 100 complete control, read-out: Plant response rating, Ducksalad): 0%
- pest or weed control at 31 g/ha ([1]; Heteranthera limosa, Flood, 31 g ai/ha, scale 0 to 100, read-out: Plant response rating, Ducksalad): 0%
- pest or weed control at 62 g/ha ([2]; Echinochloa crus-galli, Flood (flooded paddy test), 62 g ai/ha, scale 0 to 100, 0 no effect, 100 complete control, read-out: Plant response rating, Barnyardgrass): 0%
- pest or weed control at 125 g/ha ([2]; Echinochloa crus-galli, Flood (flooded paddy test), 125 g ai/ha, scale 0 to 100, 0 no effect, 100 complete control, read-out: Plant response rating, Barnyardgrass): 0%
- pest or weed control at 250 g/ha ([2]; Echinochloa crus-galli, Flood (flooded paddy test), 250 g ai/ha, scale 0 to 100, 0 no effect, 100 complete control, read-out: Plant response rating, Barnyardgrass): 0%
- pest or weed control at 31 g/ha ([2]; Echinochloa crus-galli, Flood, 31 g ai/ha, scale 0 to 100, read-out: Plant response rating, Barnyardgrass): 0%
- plant injury at 62 g/ha ([3]; Oryza sativa, Flood (flooded paddy test), 62 g ai/ha, scale 0 to 100, 0 no effect, 100 complete control, read-out: Plant response rating, Rice): 0%
- plant injury at 125 g/ha ([3]; Oryza sativa, Flood (flooded paddy test), 125 g ai/ha, scale 0 to 100, 0 no effect, 100 complete control, read-out: Plant response rating, Rice): 0%
- plant injury at 250 g/ha ([3]; Oryza sativa, Flood (flooded paddy test), 250 g ai/ha, scale 0 to 100, 0 no effect, 100 complete control, read-out: Plant response rating, Rice): 0%
- plant injury at 31 g/ha ([3]; Oryza sativa, Flood, 31 g ai/ha, scale 0 to 100, read-out: Plant response rating, Rice): 0%
- pest or weed control at 62 g/ha ([4]; Cyperus difformis, Flood (flooded paddy test), 62 g ai/ha, scale 0 to 100, 0 no effect, 100 complete control, read-out: Plant response rating, Sedge, Umbrella): 0%
- pest or weed control at 125 g/ha ([4]; Cyperus difformis, Flood (flooded paddy test), 125 g ai/ha, scale 0 to 100, 0 no effect, 100 complete control, read-out: Plant response rating, Sedge, Umbrella): 0%
- pest or weed control at 250 g/ha ([4]; Cyperus difformis, Flood (flooded paddy test), 250 g ai/ha, scale 0 to 100, 0 no effect, 100 complete control, read-out: Plant response rating, Sedge, Umbrella): 0%
- pest or weed control at 31 g/ha ([4]; Cyperus difformis, Flood, 31 g ai/ha, scale 0 to 100, read-out: Plant response rating, Sedge, Umbrella): 0%
- Plant response rating, Morningglory [5, 12]: 0
- Plant response rating, Morningglory [5, 13]: 0
- Plant response rating, Morningglory [5, 14]: 0
- Plant response rating, Morningglory [5, 15]: 0
- plant injury at 125 g/ha [6, 16]: 40%
- plant injury at 500 g/ha [6, 16]: 50%
- plant injury at 125 g/ha [6, 17]: 40%
- plant injury at 500 g/ha [6, 17]: 90%
- Corn plant response rating (crop injury, 0 = no effect, 100 = complete kill) at 125 g/ha [7, 16]: 0%
- Corn plant response rating (crop injury, 0 = no effect, 100 = complete kill) at 500 g/ha [7, 16]: 70%
- Corn plant response rating (crop injury, 0 = no effect, 100 = complete kill) at 125 g/ha [7, 17]: 0%
- Corn plant response rating (crop injury, 0 = no effect, 100 = complete kill) at 500 g/ha [7, 17]: 70%
- pest or weed control at 125 g/ha [8, 16]: 50%
- pest or weed control at 500 g/ha [8, 16]: 90%
- pest or weed control at 125 g/ha [8, 17]: 100%
- pest or weed control at 500 g/ha [8, 17]: 100%
- pest or weed control at 125 g/ha [9, 16]: 60%
- pest or weed control at 500 g/ha [9, 16]: 90%
- pest or weed control at 125 g/ha [9, 17]: 100%
- pest or weed control at 500 g/ha [9, 17]: 100%
- pest or weed control at 125 g/ha [10, 16]: 0%
- pest or weed control at 500 g/ha [10, 16]: 0%
- pest or weed control at 125 g/ha [10, 17]: 0%
- pest or weed control at 500 g/ha [10, 17]: 0%
- Plant response rating, Velvetleaf [11, 12]: 0
- Plant response rating, Velvetleaf [11, 13]: 0
- Plant response rating, Velvetleaf [11, 14]: 0
- Plant response rating, Velvetleaf [11, 15]: 0

Structure (SMILES): Cc1cc(-c2ccc(C(F)(F)F)cc2)nn1-c1c(OC(=O)C(C)(C)C)cnn(C)c1=O [Compound 2]
- Plant response rating, Ducksalad [1, 18]: 0
- Plant response rating, Ducksalad [1, 19]: 0
- Plant response rating, Ducksalad [1, 20]: 40
- Plant response rating, Ducksalad [1, 21]: 0
- Plant response rating, Barnyardgrass [2, 18]: 0
- Plant response rating, Barnyardgrass [2, 19]: 20
- Plant response rating, Barnyardgrass [2, 20]: 45
- Plant response rating, Barnyardgrass [2, 21]: 0
- Plant response rating, Rice [3, 18]: 15
- Plant response rating, Rice [3, 19]: 15
- Plant response rating, Rice [3, 20]: 45
- Plant response rating, Rice [3, 21]: 0
- Plant response rating, Sedge, Umbrella [4, 18]: 50
- Plant response rating, Sedge, Umbrella [4, 19]: 60
- Plant response rating, Sedge, Umbrella [4, 21]: 0
- Plant response rating, Morningglory [5, 22]: 0
- Plant response rating, Morningglory [5, 23]: 0
- Plant response rating, Wheat [6, 24]: 90
- Plant response rating, Wheat [6, 25]: 90
- Plant response rating, Corn [7, 24]: 90
- Plant response rating, Corn [7, 25]: 80
- Plant response rating, Barnyardgrass [8, 24]: 100
- Plant response rating, Barnyardgrass [8, 25]: 100
- Plant response rating, Crabgrass, Large [9, 24]: 80
- Plant response rating, Crabgrass, Large [9, 25]: 100
- Plant response rating, Pigweed [10, 24]: 0
- Plant response rating, Pigweed [10, 25]: 0
- Plant response rating, Velvetleaf [11, 22]: 40
- Plant response rating, Velvetleaf [11, 23]: 60
